Assays:
Type in all cases: in vivo
[1] = tested on: Spring Wheat “Freya”; test: Test 1B glasshouse assay, post-emergence herbicidal activity against cereal crops
[2] = tested on: Poa annua (POAAN); test: Test 1B glasshouse assay, post-emergence herbicidal activity against grassy weeds; conditions: 14 DAA
Procedure, shortened: (§1)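 Post-emergence spray, 14-day-old plants, glasshouse 22/16 °C day/night, 16 h light, 65% humidity. Test herbicide typically 60, 90 or 120 g/ha; cloquintocet-mexyl safener 50 g/ha optional at 60, included at 90/120. Scored visually 14 DAA, 0–100% damage, 2 reps averaged.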

[3] = tested on: Alopecurus myosuroides (ALOMY); test: as above; conditions: 14 DAA
Procedure, shortened: as §1

[4] = tested on: Avena fatua (AVEFA); test: as above; conditions: 14 DAA
Procedure, shortened: as §1

[5] = tested on: Lolium multiflorum (LOLMU); test: as above; conditions: 14 DAA
Procedure, shortened: as §1

[6] = tested on: Setaria viridis (SETVI); test: as above; conditions: 14 DAA
Procedure, shortened: as §1

[7] = tested on: Winter Wheat “Hereward”; test: Test 1B glasshouse assay, post-emergence herbicidal activity against cereal crops
Procedure, shortened: (§2)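 Technical compound in IF50 with acetone, diluted into 0.5% v/v Adigor, sprayed post-emergence on 14-day glasshouse plants (22/16 °C, 16 h light, 65% humidity), typically at 60, 90 or 120 g/ha, with or without 50 g/ha cloquintocet-mexyl safener. Phytotoxicity scored visually 14 DAA (0–100%), mean of two replicates.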

[8] = tested on: Spring Barley “Harrington”; test: as above
Procedure, shortened: as §2

[9] = tested on: Winter Barley “Suzuka”; test: as above
Procedure, shortened: as §2

[10] = herbicide 30 g/ha, cloquintocet-mexyl 50 g/ha
[11] = herbicide 45 g/ha, cloquintocet-mexyl 50 g/ha
[12] = herbicide 60 g/ha, cloquintocet-mexyl 0 g/ha
[13] = herbicide 60 g/ha, cloquintocet-mexyl 50 g/ha
[14] = 30 g/ha herbicide, 50 g/ha cloquintocet-mexyl
[15] = 45 g/ha herbicide, 50 g/ha cloquintocet-mexyl
[16] = 60 g/ha herbicide, 0 g/ha cloquintocet-mexyl
[17] = 60 g/ha herbicide, 50 g/ha cloquintocet-mexyl

SMILES	Percentage Phytotoxicity Spring Wheat “Freya” [1, 10] [%]	Percentage Phytotoxicity Spring Wheat “Freya” [1, 11] [%]	Percentage Phytotoxicity Spring Wheat “Freya” [1, 12] [%]	Percentage Phytotoxicity Spring Wheat “Freya” [1, 13] [%]	Post-emergence herbicidal activity, percentage phytotoxicity, POAAN [2, 14] [%]	Post-emergence herbicidal activity, percentage phytotoxicity, POAAN [2, 15] [%]	Post-emergence herbicidal activity, percentage phytotoxicity, POAAN [2, 16] [%]	Post-emergence herbicidal activity, percentage phytotoxicity, POAAN [2, 17] [%]	Post-emergence herbicidal activity, percentage phytotoxicity, ALOMY [3, 14] [%]	Post-emergence herbicidal activity, percentage phytotoxicity, ALOMY [3, 15] [%]	Post-emergence herbicidal activity, percentage phytotoxicity, ALOMY [3, 16] [%]	Post-emergence herbicidal activity, percentage phytotoxicity, ALOMY [3, 17] [%]	Post-emergence herbicidal activity, percentage phytotoxicity, AVEFA [4, 14] [%]	Post-emergence herbicidal activity, percentage phytotoxicity, AVEFA [4, 15] [%]	Post-emergence herbicidal activity, percentage phytotoxicity, AVEFA [4, 16] [%]	Post-emergence herbicidal activity, percentage phytotoxicity, AVEFA [4, 17] [%]	Post-emergence herbicidal activity, percentage phytotoxicity, LOLMU [5, 14] [%]	Post-emergence herbicidal activity, percentage phytotoxicity, LOLMU [5, 15] [%]	Post-emergence herbicidal activity, percentage phytotoxicity, LOLMU [5, 16] [%]	Post-emergence herbicidal activity, percentage phytotoxicity, LOLMU [5, 17] [%]	also measured
Cc1cc(C)c(C2C(=O)C[C@H](CCNC(=O)c3cccc(F)n3)C2=O)c(C)c1 (stereo partly drawn) [Compound A113]	3	0	7	0	0	0	8	0	0	18	20	25	1	3	5	3	3	20	45	23	Post-emergence herbicidal activity, percentage phytotoxicity, SETVI [6, 14]: 5%; Post-emergence herbicidal activity, percentage phytotoxicity, SETVI [6, 15]: 40%; Post-emergence herbicidal activity, percentage phytotoxicity, SETVI [6, 16]: 53%; Post-emergence herbicidal activity, percentage phytotoxicity, SETVI [6, 17]: 55%; Percentage Phytotoxicity Winter Wheat “Hereward” [7, 10]: 0%; Percentage Phytotoxicity Winter Wheat “Hereward” [7, 11]: 0%; Percentage Phytotoxicity Winter Wheat “Hereward” [7, 12]: 3%; Percentage Phytotoxicity Winter Wheat “Hereward” [7, 13]: 0%; Percentage Phytotoxicity Spring Barley “Harrington” [8, 10]: 0%; Percentage Phytotoxicity Spring Barley “Harrington” [8, 11]: 0%; Percentage Phytotoxicity Spring Barley “Harrington” [8, 12]: 33%; Percentage Phytotoxicity Spring Barley “Harrington” [8, 13]: 8%; Percentage Phytotoxicity Winter Barley “Suzuka” [9, 10]: 0%; Percentage Phytotoxicity Winter Barley “Suzuka” [9, 11]: 0%; Percentage Phytotoxicity Winter Barley “Suzuka” [9, 12]: 28%; Percentage Phytotoxicity Winter Barley “Suzuka” [9, 13]: 0%
Cc1cc(C)c(C2C(=O)C[C@@H](CCNC(=O)c3cc(Cl)ccn3)C2=O)c(C)c1 (stereo partly drawn) [Compound A127]	0	3	70	5	0	0	0	0	48	63	78	68	55	80	85	90	65	83	97	83	Post-emergence herbicidal activity, percentage phytotoxicity, SETVI [6, 14]: 97%; Post-emergence herbicidal activity, percentage phytotoxicity, SETVI [6, 15]: 99%; Post-emergence herbicidal activity, percentage phytotoxicity, SETVI [6, 16]: 100%; Post-emergence herbicidal activity, percentage phytotoxicity, SETVI [6, 17]: 100%; Percentage Phytotoxicity Winter Wheat “Hereward” [7, 10]: 0%; Percentage Phytotoxicity Winter Wheat “Hereward” [7, 11]: 0%; Percentage Phytotoxicity Winter Wheat “Hereward” [7, 12]: 65%; Percentage Phytotoxicity Winter Wheat “Hereward” [7, 13]: 5%; Percentage Phytotoxicity Spring Barley “Harrington” [8, 10]: 0%; Percentage Phytotoxicity Spring Barley “Harrington” [8, 11]: 0%; Percentage Phytotoxicity Spring Barley “Harrington” [8, 12]: 83%; Percentage Phytotoxicity Spring Barley “Harrington” [8, 13]: 8%; Percentage Phytotoxicity Winter Barley “Suzuka” [9, 10]: 0%; Percentage Phytotoxicity Winter Barley “Suzuka” [9, 11]: 0%; Percentage Phytotoxicity Winter Barley “Suzuka” [9, 12]: 85%; Percentage Phytotoxicity Winter Barley “Suzuka” [9, 13]: 5%
Cc1cc(C)c(C2C(=O)C[C@H](CCNC(=O)c3cc(Cl)ccn3)C2=O)c(C)c1 (stereo partly drawn) [Compound A128]	3	0	7	3	0	0	5	0	3	25	48	35	0	3	18	10	43	63	85	78	Post-emergence herbicidal activity, percentage phytotoxicity, SETVI [6, 14]: 23%; Post-emergence herbicidal activity, percentage phytotoxicity, SETVI [6, 15]: 43%; Post-emergence herbicidal activity, percentage phytotoxicity, SETVI [6, 16]: 55%; Post-emergence herbicidal activity, percentage phytotoxicity, SETVI [6, 17]: 63%; Percentage Phytotoxicity Winter Wheat “Hereward” [7, 10]: 0%; Percentage Phytotoxicity Winter Wheat “Hereward” [7, 11]: 0%; Percentage Phytotoxicity Winter Wheat “Hereward” [7, 12]: 8%; Percentage Phytotoxicity Winter Wheat “Hereward” [7, 13]: 0%; Percentage Phytotoxicity Spring Barley “Harrington” [8, 10]: 0%; Percentage Phytotoxicity Spring Barley “Harrington” [8, 11]: 0%; Percentage Phytotoxicity Spring Barley “Harrington” [8, 12]: 48%; Percentage Phytotoxicity Spring Barley “Harrington” [8, 13]: 0%; Percentage Phytotoxicity Winter Barley “Suzuka” [9, 10]: 0%; Percentage Phytotoxicity Winter Barley “Suzuka” [9, 11]: 0%; Percentage Phytotoxicity Winter Barley “Suzuka” [9, 12]: 18%; Percentage Phytotoxicity Winter Barley “Suzuka” [9, 13]: 0%
